Data: the NIST ThermoML archive (doi:10.1021/je034017j)

Columns and labels:
[1] = Liquid; for mass density: 101 kPa; for viscosity: 101.33 kPa
[2] = xn = mol fraction of the nth substance listed; details: 101 kPa, Liquid

CCCCCCO [hexan-1-ol]
[1]
Details	mass density [kg/m3]	viscosity [mPa·s]
293.15 K	818.84	5.412
298.15 K	–	4.596
303.15 K	811.56	3.964
313.15 K	804.28	2.966

CCCCCCO [hexan-1-ol] + CCCCC(=O)OC
[2], Capillary tube (Ostwald / Ubbelohde) method, x2 = 0
Details	kinematic viscosity [m2/s]
293.15 K	6.609e-06
303.15 K	4.885e-06
313.15 K	3.688e-06

[2], x2 = 0
Details	mass density [kg/m3]
293.15 K	818.84
303.15 K	811.56
313.15 K	804.28

CCCCCCO [hexan-1-ol] + CCCCCCC(=O)OC
[2], x2 = 0
Details	kinematic viscosity [m2/s]	mass density [kg/m3]
293.15 K	6.61e-06	818.84
303.15 K	4.88e-06	811.56
313.15 K	3.69e-06	804.28

CCCCCCC(=O)OC [methyl heptanoate]
[1]
Details	mass density [kg/m3]	viscosity [mPa·s]
283.15 K	–	1.32
293.15 K	879.96	1.112
298.15 K	–	1.023
303.15 K	870.73	0.95
313.15 K	861.65	0.823

CCCCCCC(=O)OC [methyl heptanoate] + CCCCCCO
[2]
Details	kinematic viscosity [m2/s]	mass density [kg/m3]
293.15 K, x1 = 0.0702	5.11e-06	824.02
293.15 K, x1 = 0.1168	4.4e-06	827.4
293.15 K, x1 = 0.189	3.59e-06	832.46
293.15 K, x1 = 0.3018	2.76e-06	840.04
293.15 K, x1 = 0.3966	2.31e-06	846.13
293.15 K, x1 = 0.4898	1.99e-06	851.87
293.15 K, x1 = 0.594	1.74e-06	858.04
293.15 K, x1 = 0.7085	1.52e-06	864.51
293.15 K, x1 = 0.7917	1.42e-06	869.04
293.15 K, x1 = 0.8937	1.32e-06	874.45
293.15 K, x1 = 0.937	1.29e-06	876.69
293.15 K, x1 = 1	1.26e-06	879.96
303.15 K, x1 = 0.0753	3.81e-06	816.9
303.15 K, x1 = 0.12	3.35e-06	819.99
303.15 K, x1 = 0.1919	2.79e-06	824.84
303.15 K, x1 = 0.2963	2.24e-06	831.61
303.15 K, x1 = 0.4003	1.87e-06	838.05
303.15 K, x1 = 0.4934	1.64e-06	843.6
303.15 K, x1 = 0.5979	1.45e-06	849.6
303.15 K, x1 = 0.6849	1.32e-06	854.38
303.15 K, x1 = 0.8004	1.2e-06	860.53
303.15 K, x1 = 0.8676	1.15e-06	864
303.15 K, x1 = 0.9415	1.11e-06	867.77
303.15 K, x1 = 1	1.09e-06	870.73
313.15 K, x1 = 0.064	3.05e-06	808.63
313.15 K, x1 = 0.1198	2.62e-06	812.36
313.15 K, x1 = 0.1968	2.21e-06	817.35
313.15 K, x1 = 0.2986	1.83e-06	823.7
313.15 K, x1 = 0.3995	1.56e-06	829.76
313.15 K, x1 = 0.5299	1.32e-06	837.23
313.15 K, x1 = 0.6009	1.22e-06	841.13
313.15 K, x1 = 0.6925	1.12e-06	846.03
313.15 K, x1 = 0.8022	1.04e-06	851.72
313.15 K, x1 = 0.872	9.99e-07	855.24
313.15 K, x1 = 0.9368	9.78e-07	858.5
313.15 K, x1 = 1	9.55e-07	861.65

CCCCC(=O)OC [methyl pentanoate]
[1]
Details	mass density [kg/m3]	viscosity [mPa·s]
283.15 K	–	0.816
293.15 K	889.75	0.712
298.15 K	–	0.661
303.15 K	879.51	0.623
313.15 K	869.32	0.551

CCCCCCCC [octane]
[1]
Details	mass density [kg/m3]	viscosity [mPa·s]
283.15 K	–	0.614
293.15 K	702.54	0.542
298.15 K	–	0.508
303.15 K	694.35	0.483
313.15 K	686.12	0.43

CCCCCCCC [octane] + CCCCCCO
[2], x1 = 1
Details	kinematic viscosity [m2/s]	mass density [kg/m3]
293.15 K	7.71e-07	702.54
303.15 K	6.96e-07	694.35
313.15 K	6.27e-07	686.12
